Assay results as given in US9023789B2, “Amylin analogs and pharmaceutical compositions thereof” (Novo Nordisk A/S, priority 2012, dated 2015).
Numbered stars: 1 amine (or outer) side, 2 acyl side, 3 side chain; on linkers, the order of the positions; unused ones are H or OH. Bridge positions count the residues as written; N and C are the ends. Side chains are listed from the residue outwards. Peptide text beside a SMILES is read from it. * marks the point of attachment. C20 diacid = O=C(O)CCCCCCCCCCCCCCCCCCC(=O)*; γGlu = O=C(O)[C@H](CCC(=O)[*:2])N[*:1]

What was measured:
[1] = biological target: T1, human amylin 3(a) receptor (human calcitonin receptor + RAMP-3) in BHK570 cells (Homo sapiens, UniProt O60896+P30988); experiment: ASSAY (II)a functional assay, human amylin receptor (CRE luciferase); type: cell-based; conditions: for EC50: human amylin receptor functional potency, assay (II), read-out: hAmylin-R funct. EC50
T1 construct: expressed in transfected cells
Outline: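 Read-out: CRE-driven luciferase luminescence, single photon counting, after 30 min at room temperature with LucLite. BHK cells expressed calcitonin receptor alone or with RAMP-3 (amylin 3(a)). Cells were stimulated 3 h at 37° C in DMEM, 10% FBS, 10 mM Hepes, pH 7.4.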

[2] = ASSAY (III) ThT fibrillation assay for physical stability; type: physicochemical
Outline: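 Physical stability scored by ThT fluorescence (444 nm excitation, 485 nm emission) tracked every 20 min during 37 °C incubation with 960 rpm shaking, ThT at 1 μM final. Values are replicate means with SD at chosen times; HPLC against pramlintide standard gives initial and post-assay soluble concentrations.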

[3] = biological target: T2, human amylin receptor (membranes from Amylin 3(a)/CRE-luc cells) (Homo sapiens, UniProt O60896+P30988); experiment: ASSAY (V) binding to the human amylin receptor (SPA, 125I-rat amylin); conditions: for IC50: Table 4, read-out: hAmylin-R bind IC50;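 on all read-outs here: competition binding of cell membranes (35 ng/µL) mixed with SPA beads in 384-well plates at 40 µL total volume, read by scintillation counting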
T2 construct: expressed in transfected cells
T2 sequence (P30988 25-474): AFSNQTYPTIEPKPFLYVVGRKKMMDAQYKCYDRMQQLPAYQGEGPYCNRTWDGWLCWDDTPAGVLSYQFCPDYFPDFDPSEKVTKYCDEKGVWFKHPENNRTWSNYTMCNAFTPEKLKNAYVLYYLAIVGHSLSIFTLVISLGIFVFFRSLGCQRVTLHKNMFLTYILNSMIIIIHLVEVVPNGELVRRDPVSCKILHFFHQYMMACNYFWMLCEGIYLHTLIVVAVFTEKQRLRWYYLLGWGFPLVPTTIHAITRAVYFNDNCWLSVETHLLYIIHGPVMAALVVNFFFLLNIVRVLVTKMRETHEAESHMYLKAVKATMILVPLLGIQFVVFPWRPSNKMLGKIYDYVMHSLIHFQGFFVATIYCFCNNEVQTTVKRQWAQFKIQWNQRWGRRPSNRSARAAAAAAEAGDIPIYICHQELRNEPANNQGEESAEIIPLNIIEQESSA
T2 sequence (O60896 24-148 partner): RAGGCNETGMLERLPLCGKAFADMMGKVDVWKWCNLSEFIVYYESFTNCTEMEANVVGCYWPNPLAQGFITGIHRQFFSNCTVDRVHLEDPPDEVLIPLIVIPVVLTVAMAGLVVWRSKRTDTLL

[4] = hCTR funct. EC50 divided by hAmylin-R funct. EC50
[5] = hCTR funct. EC50 over hAmylin-R funct. EC50
[6] = human functional selectivity: hCTR funct. EC50 / hAmylin-R funct. EC50
[7] = Table 5, selectivity, hCTR bind IC50 / hAmylin-R bind IC50
[8] = Table 5a, selectivity, hCTR bind IC50 / hAmylin-R bind IC50
[9] = Table 7, human binding selectivity, included for comparison
[10] = Table 7a (preferred compounds), human binding selectivity, included for comparison
[11] = ratio of human calcitonin receptor binding IC50 to human amylin receptor binding IC50
[12] = Table 5b, selectivity, hCTR bind IC50 / hAmylin-R bind IC50
[13] = Table 5c, selectivity, hCTR bind IC50 / hAmylin-R bind IC50

Ratio hCT/hAmylin funct. [1, 4]	Ratio hCT/hAmylin funct. [1, 5]	Ratio hCT/hAmylin funct. [1, 6]	ThT pH 4.0 lag time (h) [2] [h]	Ratio hCT/hAmylin binding [3, 7]	Ratio hCT/hAmylin binding [3, 8]	Ratio hCT/hAmylin binding [3, 9]	Ratio hCT/hAmylin binding [3, 10]	Ratio hCT/hAmylin binding [3, 11]	Ratio hCT/hAmylin funct. ([1]; hCTR funct. EC50 / hAmylin-R funct. EC50)	EC50 [1] [pM]	IC50 [3] [pM]	Ratio hCT/hAmylin binding [3, 12]	Ratio hCT/hAmylin binding [3, 13]	SMILES
6.6	6.6	6.6	45	10.9	10.9	10.9	10.9	10.9	–	–	–	–	–	CC[C@H](C)[C@H](NC(=O)[C@H](C)NC(=O)CNC(=O)[C@H](Cc1ccccc1)NC(=O)[C@H](CC(N)=O)NC(=O)[C@@H]1CCCN1C(=O)[C@H](CO)NC(=O)[C@H](CO)NC(=O)[C@H](Cc1c[nH]cn1)NC(=O)[C@H](CCCNC(=N)N)NC(=O)[C@H](CC(C)C)NC(=O)[C@H](Cc1ccccc1)NC(=O)[C@H](CCC(=O)O)NC(=O)[C@H](C)NC(=O)[C@H](CC(C)C)NC(=O)[C@H](CCCNC(=N)N)NC(=O)[C@H](CCC(N)=O)NC(=O)[C@@H](NC(=O)[C@H](C)NC(=O)[C@@H]1CSSC[C@H](NC(=O)[C@H](CCCCN)NC(=O)CC[C@H](NC(=O)CCCCCCCCCCCCCCCCCCC(=O)O)C(=O)O)C(=O)N[C@@H](CC(N)=O)C(=O)N[C@@H]([C@@H](C)O)C(=O)N[C@@H](C)C(=O)N[C@@H]([C@@H](C)O)C(=O)N1)[C@@H](C)O)C(=O)N1CCC[C@H]1C(=O)N[C@@H](CO)C(=O)N[C@@H](CO)C(=O)N[C@H](C(=O)N[C@@H](CC(N)=O)C(=O)N[C@H](C(=O)NCC(=O)N1CCC[C@H]1C(=O)N[C@@H](CC(N)=O)C(=O)N[C@H](C(=O)N[C@@H](Cc1ccc(O)cc1)C(N)=O)[C@@H](C)O)C(C)C)[C@@H](C)O [Example 32] ({C20 diacid-γGlu}-KCNTATCATQRLAEFLRHSSPNFGAIPSSTNVGPNTY-NH2; disulfide 2-7)
–	2.2	2.2	9	3.9	–	3.9	3.9	–	2.2	243	915	–	–	CC[C@H](C)[C@H](NC(=O)[C@H](C)NC(=O)CNC(=O)[C@H](Cc1ccccc1)NC(=O)[C@H](CC(N)=O)NC(=O)[C@@H]1CCCN1C(=O)[C@H](CO)NC(=O)[C@H](CO)NC(=O)[C@H](Cc1c[nH]cn1)NC(=O)[C@H](CCCNC(=N)N)NC(=O)[C@H](CC(C)C)NC(=O)[C@H](Cc1ccccc1)NC(=O)[C@H](CCC(=O)O)NC(=O)[C@H](C)NC(=O)[C@H](CC(C)C)NC(=O)[C@H](CCCNC(=N)N)NC(=O)[C@H](CCC(N)=O)NC(=O)[C@@H](NC(=O)[C@H](C)NC(=O)[C@@H]1CSSC[C@H](NC(=O)[C@H](CCCCN)NC(=O)CC[C@H](NC(=O)CCCCCCCCCCCCCCCCCCC(=O)O)C(=O)O)C(=O)N[C@@H](CC(N)=O)C(=O)N[C@@H]([C@@H](C)O)C(=O)N[C@@H](C)C(=O)N[C@@H]([C@@H](C)O)C(=O)N1)[C@@H](C)O)C(=O)N[C@@H](CC(C)C)C(=O)N1CCC[C@H]1C(=O)N[C@@H](CO)C(=O)N[C@H](C(=O)N[C@@H](CC(N)=O)C(=O)N[C@H](C(=O)NCC(=O)N[C@@H](CO)C(=O)N[C@@H](CCC(=O)O)C(=O)N[C@H](C(=O)N[C@@H](Cc1ccc(O)cc1)C(N)=O)[C@@H](C)O)C(C)C)[C@@H](C)O [Example 33] ({C20 diacid-γGlu}-KCNTATCATQRLAEFLRHSSPNFGAILPSTNVGSETY-NH2; disulfide 2-7)
8.4	–	8.4	35	64.4	64.4	64.4	64.4	64.4	–	–	–	64.4	64.4	CC[C@H](C)[C@H](NC(=O)[C@H](C)NC(=O)CNC(=O)[C@H](Cc1ccccc1)NC(=O)[C@H](CC(N)=O)NC(=O)[C@@H]1CCCN1C(=O)[C@H](CO)NC(=O)[C@H](CO)NC(=O)[C@H](Cc1c[nH]cn1)NC(=O)[C@H](CCCNC(=N)N)NC(=O)[C@H](CC(C)C)NC(=O)[C@H](Cc1ccccc1)NC(=O)[C@H](CC(N)=O)NC(=O)[C@H](C)NC(=O)[C@H](CC(C)C)NC(=O)[C@H](CCCNC(=N)N)NC(=O)[C@H](CCC(N)=O)NC(=O)[C@@H](NC(=O)[C@H](C)NC(=O)[C@@H]1CSSC[C@H](NC(=O)[C@H](CCCCN)NC(=O)CC[C@H](NC(=O)CCCCCCCCCCCCCCCCCCC(=O)O)C(=O)O)C(=O)N[C@@H](CC(N)=O)C(=O)N[C@@H]([C@@H](C)O)C(=O)N[C@@H](C)C(=O)N[C@@H]([C@@H](C)O)C(=O)N1)[C@@H](C)O)C(=O)N1CCC[C@H]1C(=O)N[C@@H](CO)C(=O)N[C@@H](CO)C(=O)N[C@H](C(=O)N[C@@H](CC(N)=O)C(=O)N[C@H](C(=O)NCC(=O)N[C@@H](CO)C(=O)N[C@@H](CCCCN)C(=O)N[C@H](C(=O)N[C@@H](Cc1ccc(O)cc1)C(N)=O)[C@@H](C)O)C(C)C)[C@@H](C)O [Example 34]
15.0	15.0	15.0	45	50.3	50.3	50.3	50.3	50.3	–	364	970	50.3	50.3	CC[C@H](C)[C@H](NC(=O)[C@H](C)NC(=O)CNC(=O)[C@H](Cc1ccccc1)NC(=O)[C@H](CC(N)=O)NC(=O)[C@@H]1CCCN1C(=O)[C@H](CO)NC(=O)[C@H](CO)NC(=O)[C@H](Cc1c[nH]cn1)NC(=O)[C@H](CCCNC(=N)N)NC(=O)[C@H](CC(C)C)NC(=O)[C@H](Cc1ccccc1)NC(=O)[C@H](CC(N)=O)NC(=O)[C@H](C)NC(=O)[C@H](CC(C)C)NC(=O)[C@H](CCCNC(=N)N)NC(=O)[C@H](CCC(N)=O)NC(=O)[C@@H](NC(=O)[C@H](C)NC(=O)[C@@H]1CSSC[C@H](NC(=O)[C@@H](N)CCCCNC(=O)CC[C@H](NC(=O)CCCCCCCCCCCCCCCCCCC(=O)O)C(=O)O)C(=O)N[C@@H](CC(N)=O)C(=O)N[C@@H]([C@@H](C)O)C(=O)N[C@@H](C)C(=O)N[C@@H]([C@@H](C)O)C(=O)N1)[C@@H](C)O)C(=O)N1CCC[C@H]1C(=O)N[C@@H](CO)C(=O)N[C@@H](CO)C(=O)N[C@H](C(=O)N[C@@H](CC(N)=O)C(=O)N[C@H](C(=O)NCC(=O)N[C@@H](CO)C(=O)N[C@@H](CCCCN)C(=O)N[C@H](C(=O)N[C@@H](Cc1ccc(O)cc1)C(N)=O)[C@@H](C)O)C(C)C)[C@@H](C)O [Example 35] (H-K([γGlu-C20 diacid])CNTATCATQRLANFLRHSSPNFGAIPSSTNVGSKTY-NH2; disulfide 2-7; N-terminus assumed)
